{
  "source": "patent US10183015B2",
  "about": "“Heterocyclic compounds and methods of use” (Medivation Technologies LLC, priority 2015, dated 2019)",
  "key": {"[1]": {"test_system": "60% high fat Paigen diet induced NASH mouse model", "test": "Short-term Paigen-diet NASH mouse model: NAFLD (NAS) score histopathology", "assay_type": "in vivo", "design": "NAS score: total / NAS score: steatose / NAS score: inflammation / NAS score: fibrosis / NAS score: hepatocyte ballooning: scale not given here", "description": "To investigate whether Compound #37 prevents the development of pathology associated with NASH and steatosis in an acute exploratory disease model, a study was conducted using a diet-induced acute liver steatosis model in mice. […]\nAfter acclimation, 8-week old male C57Bl/6J mice (Charles River) weighing about 25 g were randomized in 4 groups according their body weight and treated once daily around noon by oral gavage with vehicle, […] (2-hydroxypropyl)-β-cyclodextrin (HP-β-CD) (n=10); Group 2: Compound #37, 5 mg/kg (n=10) Group 3: Compound #37, 20 mg/kg (n=10) Group 4: Compound #37, 40 mg/kg (n=10). During the treatment period, body weight and food intake (measured over 24h) were measured 3 times per week and once a week, respectively. During the acclimation, all mice were fed a standard diet (Special Diets Services RM1 (E), product no. 801492) and tap water ad libitum. After the acclimation period, mice were fed until the end of the experiment with a 60% high fat Paigen diet (60 kcal % fat, 1.25% cholesterol, and 0.5% cholate; D11061901, Research Diet) and tap water ad libitum.\nNAFLD score analysis. A 0.5 cm^3 piece of liver was fixed in 10% formalin for 48-72h, stored in ethanol 70° at 4° C., and processed for eosin/hematoxylin staining and NAFLD score analysis. One section (thickness 3-5 μm) per block was deposited on Superfrost+slides for hematoxylin-eosin staining. Individual slides having a single hepatic lobe section stained with H&E were digitized using a Nanozoomer from Hamamatsu. Sections were evaluated with knowledge of groups. Each section was evaluated and individually scored. A NAFLD scoring system (NAS) adapted from Kleiner et al. (Hepatology 41, 1313-21, 2005), Wu et al. (BMC Vet. Res. 10, 162, 2014), and Lee et al. (J. Lipid Res. 48, 1885-96, 2007). A total of four variables were qualitatively assessed and ranked with a score: (1) hepatocellular steatosis, (2) liver inflammation, (3) lobular fibrosis, and (4) hepatocyte ballooning."}, "PERK": {"test_system": "PERK", "test": "Short-term Paigen-diet NASH mouse model: hepatic PERK gene expression (RT-qPCR)", "assay_type": "in vivo", "conditions": "21 days", "description": "To investigate whether Compound #37 prevents the development of pathology associated with NASH and steatosis in an acute exploratory disease model, a study was conducted using a diet-induced acute liver steatosis model in mice. As described below, in this study, C57BL/6J mice were initiated on the Paigen diet and simultaneously treated with Compound #37 (5, 20, and 40 mg/kg/day) or vehicle control (20% HPβCD 10 mL/kg/day) by oral gavage for 21 days.\nAfter acclimation, 8-week old male C57Bl/6J mice (Charles River) weighing about 25 g were randomized in 4 groups according their body weight and treated once daily around noon by oral gavage with vehicle, or Compound #37 at various for 21 days as follows: Group 1: vehicle-20% (2-hydroxypropyl)-β-cyclodextrin (HP-β-CD) (n=10); Group 2: Compound #37, 5 mg/kg (n=10) Group 3: Compound #37, 20 mg/kg (n=10) Group 4: Compound #37, 40 mg/kg (n=10). During the treatment period, body weight and food intake (measured over 24h) were measured 3 times per week and once a week, respectively. During the acclimation, all mice were fed a standard diet (Special Diets Services RM1 (E), product no. 801492) and tap water ad libitum. After the acclimation period, mice were fed until the end of the experiment with a 60% high fat Paigen diet (60 kcal % fat, 1.25% cholesterol, and 0.5% cholate; D11061901, Research Diet) and tap water ad libitum.\nGene expression analysis. Hepatic expression levels of genes involved in lipid metabolism (FAS, SREBP1, ACC1, SCD1), cholesterol metabolism (HMG-CoAR, LDLR), SREBP proteolysis (SCAP, INSIG1), ER stress (PERK), oxidative stress (NRF2), inflammation (MCP-1), and fibrosis (collagen 1α1) were quantified by RTqPCR. Expression level was normalized to 18S gene expression and relative expression to vehicle group was calculated with the […] method."}, "[2]": {"conditions": "5 mg/kg, 21 days, group mean, n 10"}, "[3]": {"conditions": "20 mg/kg, 21 days, group mean, n 6"}, "[4]": {"conditions": "40 mg/kg, 9 days, group mean, n 4"}},
  "note": "Several values for one entry are separate records, joined by “and”; a condition that tells them apart may be missing. Equal entries are not always repeated.",
  "data": [
    {"smiles": "CC(C)Cc1cc(-c2nc(-c3ccc(NS(=O)(=O)C(F)(F)F)cc3Cl)cs2)ccn1", "note": "[Compound 37, N-(3-chloro-4-(2-(2-isobutylpyridin-4-yl)thiazol-4-yl)phenyl)-1,1,1-trifluoromethanesulfonamide]", "values": [
      {"measurement": "animals with Grade 1 hepatocellular steatosis", "setting": "[1]; 5 mg/kg, 21 days", "value": "9/10"},
      {"measurement": "animals with grade-3 inflammation", "setting": "[1]; 5 mg/kg, 21 days", "value": "4/10"},
      {"measurement": "animals with limited periportal fibrosis (mostly Grade 1)", "setting": "[1]; 5 mg/kg, 21 days", "value": "10/10"},
      {"measurement": "NAS score: fibrosis", "setting": "[1]; [2]", "value": 1.2},
      {"measurement": "NAS score: hepatocyte ballooning", "setting": "[1]; [2]", "value": 0.3},
      {"measurement": "NAS score: inflammation", "setting": "[1]; [2]", "value": 2},
      {"measurement": "NAS score: steatose", "setting": "[1]; [2]", "value": 1.1},
      {"measurement": "NAS score: total", "setting": "[1]; [2]", "value": 4.6},
      {"measurement": "NAS score: total", "setting": "[1]; 5 mg/kg, 21 days, individual animals", "value": "4 (2×) and 5 (4×) and 3 (2×) and 6 (2×)"},
      {"measurement": "animals with Grade 1 hepatocellular steatosis", "setting": "[1]; 20 mg/kg, 21 days", "value": "3/6"},
      {"measurement": "animals with grade-3 inflammation", "setting": "[1]; 20 mg/kg, 21 days", "value": "1/6"},
      {"measurement": "animals with limited periportal fibrosis (mostly Grade 1)", "setting": "[1]; 20 mg/kg, 21 days", "value": "3/6"},
      {"measurement": "NAS score: fibrosis", "setting": "[1]; [3]", "value": 0.5},
      {"measurement": "NAS score: hepatocyte ballooning", "setting": "[1]; [3]", "value": 0},
      {"measurement": "NAS score: inflammation", "setting": "[1]; [3]", "value": 1.67},
      {"measurement": "NAS score: steatose", "setting": "[1]; [3]", "value": 0.5},
      {"measurement": "NAS score: total", "setting": "[1]; [3]", "value": 2.67},
      {"measurement": "NAS score: total", "setting": "[1]; 20 mg/kg, 21 days, individual animals", "value": "2 (2×) and 3 (2×) and 5 and 1"},
      {"measurement": "NAS score: fibrosis", "setting": "[1]; [4]", "value": 0},
      {"measurement": "NAS score: hepatocyte ballooning", "setting": "[1]; [4]", "value": 1},
      {"measurement": "NAS score: inflammation", "setting": "[1]; [4]", "value": 0},
      {"measurement": "NAS score: steatose", "setting": "[1]; [4]", "value": 2},
      {"measurement": "NAS score: total", "setting": "[1]; [4]", "value": 3},
      {"measurement": "NAS score: total", "setting": "[1]; 40 mg/kg, 9 days, individual animals", "value": 3},
      {"measurement": "ER and oxidative stress gene expression PERK: 2DDct", "setting": "PERK; 5 mg/kg, group mean, n 10", "value": 0.91},
      {"measurement": "ER and oxidative stress gene expression PERK: 18S", "setting": "PERK; 5 mg/kg, group mean, n 10", "value": 12.3},
      {"measurement": "ER and oxidative stress gene expression PERK: DDct", "setting": "PERK; 5 mg/kg, group mean, n 10", "value": 0.32},
      {"measurement": "ER and oxidative stress gene expression PERK: Dct", "setting": "PERK; 5 mg/kg, group mean, n 10", "value": 15.4},
      {"measurement": "ER and oxidative stress gene expression PERK: PERK", "setting": "PERK; 5 mg/kg, group mean, n 10", "value": 27.6},
      {"measurement": "ER and oxidative stress gene expression PERK: 2DDct", "setting": "PERK; 5 mg/kg, individual animals", "value": "1.29 and 0.54 and 0.35 and 1.5 and 0.42 and 0.58 and 1.06 and 1.56 and 0.97 and 0.79"},
      {"measurement": "ER and oxidative stress gene expression PERK: 18S", "setting": "PERK; 5 mg/kg, individual animals", "value": "13.46 and 13.11 and 11.61 and 13.35 (2×) and 12.03 and 11.6 and 11.79 and 11.14 and 11.12"},
      {"measurement": "ER and oxidative stress gene expression PERK: DDct", "setting": "PERK; 5 mg/kg, individual animals", "value": "−0.36 and 0.9 and 1.52 and −0.58 and 1.24 and 0.8 and −0.08 and −0.64 and 0.04 and 0.34"},
      {"measurement": "ER and oxidative stress gene expression PERK: Dct", "setting": "PERK; 5 mg/kg, individual animals", "value": "14.68 and 15.94 and 16.56 and 14.46 and 16.28 and 15.84 and 14.96 and 14.4 and 15.08 and 15.38"},
      {"measurement": "ER and oxidative stress gene expression PERK: PERK", "setting": "PERK; 5 mg/kg, individual animals", "value": "28.14 and 29.05 and 28.17 and 27.81 and 28.31 and 29.19 and 26.56 and 26.19 and 26.22 and 26.5"},
      {"measurement": "ER and oxidative stress gene expression PERK: 2DDct", "setting": "PERK; 20 mg/kg, group mean, n 6", "value": 1.33},
      {"measurement": "ER and oxidative stress gene expression PERK: 18S", "setting": "PERK; 20 mg/kg, group mean, n 6", "value": 12.2},
      {"measurement": "ER and oxidative stress gene expression PERK: DDct", "setting": "PERK; 20 mg/kg, group mean, n 6", "value": "−0.27"},
      {"measurement": "ER and oxidative stress gene expression PERK: Dct", "setting": "PERK; 20 mg/kg, group mean, n 6", "value": 14.8},
      {"measurement": "ER and oxidative stress gene expression PERK: PERK", "setting": "PERK; 20 mg/kg, group mean, n 6", "value": 27},
      {"measurement": "ER and oxidative stress gene expression PERK: 2DDct", "setting": "PERK; 20 mg/kg, individual animals", "value": "1.04 and 1.05 and 1.27 and 2.68 and 0.61 and 1.34"},
      {"measurement": "ER and oxidative stress gene expression PERK: 18S", "setting": "PERK; 20 mg/kg, individual animals", "value": "12.91 and 12.29 and 12.2 and 13.03 and 11.49 and 11.26"},
      {"measurement": "ER and oxidative stress gene expression PERK: DDct", "setting": "PERK; 20 mg/kg, individual animals", "value": "−0.05 and −0.07 and −0.34 and −1.42 and 0.72 and −0.42"},
      {"measurement": "ER and oxidative stress gene expression PERK: Dct", "setting": "PERK; 20 mg/kg, individual animals", "value": "14.99 and 14.97 and 14.7 and 13.62 and 15.76 and 14.62"},
      {"measurement": "ER and oxidative stress gene expression PERK: PERK", "setting": "PERK; 20 mg/kg, individual animals", "value": "27.9 and 27.26 and 26.9 and 26.65 and 27.25 and 25.88"}
    ]}
  ]
}
